# Where two headings read alike, the source gives them in different places.
# Experiments:
# [1] = tested on: AtohKO enteroids; assay: IL-13 administration in enteroids; format: cell-based, mouse; settings: level similar to IL-13 in control enteroids
# Method: Enteroid Experiment: Ileal tissue was dissected and incubated in chelation buffer (3 mM EDTA/EGTA, 0.5 mM DTT, 1% P/S) at 4° C. for 45 minutes. The tissue was shaken in PBS and filtered through a 100 μm filter to isolate individual ileal crypts. The crypt suspension was centrifuged at 2.8×1000 RPM for 1½ minutes at 4° C. following which 10 μl of crypt pellet was resuspended in 300 μl of reduced growth factor Matrigel and embedded in a 24-well dish. Enteroids were cultured initially in IntestiCult Organoid Growth Medium (StemCell Technologies) supplemented with Primocin antimicrobial reagent (InvivoGen, 1:1000) for 4 days before being changed to Primocin-supplemented differentiation media. For ex vivo Cre-activation, Lrig1^CreERT2/+ Atoh1^fl/fl enteroids were treated overnight at 37° C. with either 1 μM 4-hydroxytamoxifen (Sigma-Aldrich) or vehicle (ethanol) in differentiation media. Enteroids were passaged the following day into 8-well chamber slides and, after 5 days, were fixed on ice using 4% PFA for immunofluorescence staining.
# Enteroid Immunofluorescence Staining: Fixed enteroids were permeabilized with Triton X-100 for 30 min and blocked with 1% normal donkey serum (PBS) for 30 min at RT. Enteroids were stained with primary antibodies against LYZ1 (DAKO, 1:100, rabbit), MUC2 (Santa Cruz, 1:100, rabbit), and DCLK1 (Santa Cruz, 1:100, goat). […]
# [2] = tested on: ATOH1-independent tuft cells; settings: antibiotic-treated AtohKO animals; small intestine
# From the text: (§1) Mid-dose antibiotics and low-dose antibiotics were 0.75× and 0.25× of the original 1× concentration, respectively.
# [3] = tested on: TNF^ΔARE/+ model of Crohn's-like ileitis; settings: TNFΔARE/+ ileum
# Method: Mouse Experiments: All animal protocols were approved by the Vanderbilt University Animal Care and Use Committee and in accordance with NIH guidelines. Lrig1^CreERT2 and Atoh1^flox/flox strains, each in a C57BL/6 background, were purchased from Jackson Laboratory to generate Lrig1^CreERT2/+; Atoh1^fl/fl (AtohKO) animals Cre recombinase activity was induced in two- or three-month-old Lrig1^CreERT2/+; Atoh1^fl/fl and Lrig1^+/+; Atoh1^fl/fl males via intraperitoneal administration of 2 mg of tamoxifen (Sigma-Aldrich) for four consecutive days. Mice were sacrificed and tissues were harvested twenty-one days after the first injection. TNF^ΔARE/+ and wildtype littermates were sacrificed at four months of age after disease onset, followed by tissue collection Animal weights were recorded at regular intervals.
# as §1
# (§2) Immunofluorescence staining and imaging: Paraffin-embedded ileal tissues were section (5 μm) prior to deparaffinization, rehydration, and antigen retrieval using a citrate buffer (pH 6.0) for 20 minutes in a pressure cooker at 105° C., followed by a 20-minute cool down at room temperature (RT). Endogenous background signal was quenched by incubating tissue slides in 3% hydrogen peroxide for 10 minutes at RT. Tissue sections were blocked in staining buffer (3% bovine serum albumin/10% normal donkey serum) for 1 hour at RT prior to incubation with primary antibody overnight at RT. Antibodies used for immunofluorescence included those against LYZ1 (DAKO, 1:100, rabbit), MUC2 (Santa Cruz, 1:100, rabbit), MPO (DAKO, 1:100, rabbit), DCLK1 (Santa Cruz, 1:100, goat), FOXP3 (eBioscience, 1:50, rat), and GATA3 (Abcam, 1:50, rabbit). Sections were then incubated with AlexaFluor (AF)-555- or AF-647-conjugated secondary antibodies (Life Technologies, 1:500) for 1 hour at RT and Hoechst (1:10,000, Life Technologies) for 10 min at RT. For human tuft cell labeling, AF-488-conjugated pEGFR (Abcam, 1:100) and unconjugated COX2 (CST, 1:100, rabbit) were used. Slides were incubated with anti-rabbit AF-647-conjugated secondary antibody and stained with Hoechst. Imaging was performed using a Zeiss Axio Imager M2 microscope with Axiovision digital imaging system (Zeiss, Jena GmBH, Germany).
# Image quantification: To quantify human tuft cells, the number of crypt and villus structures were counted per field of view (FOV) for each subject (approximately 15-20 FOVs per sample). Tuft cell number, as identified by pEGFR and COX co-labeling, was manually counted per FOV in a blinded fashion. Quantification of tuft cell number per epithelial structure (crypt and villus) was generated for each subject and then stratified by disease state (“normal” or “Crohn's disease”) based on the pathology report. Results were analyzed by t-test using Prism GraphPad. For MUC2 quantification, manual demarcation of the epithelial villi was performed in each FOV and a nuclear mask was generated based on Hoechst staining.
# [4] = tested on: cytokine levels; assay: Multiplex Luminex cytokine levels in short-term succinate-treated TNFΔARE/+ animals
# [5] = tested on: tuft cells
# Method: as §2
# [6] = tested on: TCA cycle genes
# [7] = short-term succinate vs untreated controls
# [8] = succinate-treated intestinal tissues
molecule,measurement,setting,value
IL-13: type 2 cytokine interleukin-13 administered to enteroids,tuft cell specification and expansion,[1],induced tuft cell specification and expansion
"O=C(O)CCC(=O)O [succinate, succinic acid]",tuft cell expansion,[2],restored tuft cell expansion to microbiome-replete levels
same,FOXP3+ T-regulatory cells,[3]; long-term (1 month) succinate treatment,significantly reduced
same,DCLK1+ tuft cells,[3]; succinate-treated,increased
same,stromal LYZ1 expression,[3]; succinate-treated,less stromal LYZ1 expression
same,"depth of inflammation (0-4), pathological scoring",[3]; succinate-treated vs control,decreased mucosal destruction
same,"extent of tissue injury (0-4), pathological scoring",[3]; succinate-treated vs control,decreased mucosal destruction
same,IL-17A,[4]; short-term (<1 week) succinate,significant increase
same,IL-17F,[4]; short-term (<1 week) succinate,significant increase
same,IL-22 levels,[4]; short-term (<1 week) succinate,increased levels
same,IL-23 levels,[4]; short-term (<1 week) succinate,significantly reduced
same,IL-27 expression,[4]; short-term (<1 week) succinate,induced
same,IL-5,[4]; short-term succinate,increased
same,IL-9,[4]; short-term succinate,increased
same,IL-10,[4]; short-term succinate,increased
same,IL-4 levels,[4]; [7],significantly increased
same,IL-13 levels,[4]; [7],significantly increased
same,IL-25 levels,[4]; [7],significantly increased
same,TNF-α levels,[4]; succinate treatment,did not result in decreased TNF-α levels
same,tuft cell expansion,"[5]; exogenous succinate administration, small intestine",induces tuft cell expansion
same,tuft cell expansion in the colon,"[5]; succinate administration, colon",did not induce tuft cell expansion
same,GATA3+ cells,[5]; [8],increased
same,major basic protein-positive eosinophils,[5]; [8],increased
same,weight gain,"TNFΔARE/+ animals, succinate in drinking water",failed to gain as much weight as untreated controls
same,weight gain,wildtype animals treated with succinate,minimal weight gain
same,"expression of Idh3b, Idh3a, Sdha, Sdhd in the tuft cell lineage",[6]; exogenous succinate treatment,induced
same,expression of genes such as Sdhc in the secretory lineage,[6]; succinate treatment,significantly reduced
same,relative expression of Mdh2 and Sdhc in enterocytes,[6]; untreated and succinate-treated enterocytes,constitutively high

# From patent US20220047538A1, “TUFT CELL SPECIFICATION IN INFLAMMATORY ILEITIS” (VANDERBILT UNIVERSITY, priority 2019, published 2022)
